Laboratory results taken from patent publication US7763648B2, “Oxa-steroids derivatives as selective progesterone receptor modulators” (Janssen Pharmaceutica N.V., priority 2006, dated 2010).

Assays:
[1] = tested on: A549 Human lung carcinoma cells; test: A549 Human Lung Cell Assay (transfected, dexamethasone challenge, Luc-assay); format: cell-based; conditions: Dexamathasone challenge, 24 h
Protocol: A549 Human Lung Cell Assay
A549 Human lung carcinoma cells were grown in F-12K Nutrient Mixture containing 10% (v/v) fetal bovine serum (FBS; Invitrogen), 2 mM glutamine and 0.15% sodium dicarbonate (Invitrogen).
A549 cells were split 1 to 3 in 175 cm tissue culture flask. The cells were incubated at 37° C. in CO2 incubator until the cells were 95% confluent (typically 24-30 hours).
The following solutions were prepared in sterile tubes: (a) Solution A: 1.5 μg/ml of DNA in 8.5 ml OPTI-MEM I Reduced Serum Medium. (GIBCO cat# 31985) and (b) Solution B: 6 μl/ml of DMRIE-C Reagent into […] OPTI-MEM I. The two solutions were combined and mixed gently, then incubated at room temperature for 40 minutes.
The A549 cells prepared above were washed with […] of OPTI-MEM I. The medium was removed and 17 ml of the lipid-DNA complex solution was overlayed onto cells. The cells ere then incubated for 16 h at 37° C. in CO2 incubator. The DNA-containing medium was removed and 30 ml of growth medium was added. (5% Charcoal treated FBS) After 5-6 h, the cells were seeded in a 96 well plate and the cells incubated overnight at 37° C. in CO2 incubator.
To each well was then added 5 μl of test compounds and the cells incubated at 37° C. for 10 min. 5 μL of Dexamathasone (CAS [50-02-2]), was then added to each well for challenger and the cells incubated at 37° C. in CO2 incubator for 24 h. 100 μl of Luc-assay buffer was then added into each cell well and the cells incubated for 30 min at room temperature. A 150 μL sample from each well was then transferred into a DYNEX Microlitel plate and read on Top-counter.

[2] = tested on: T47D human breast cancer cells; test: T47D Human Breast Cancer Cells Assay (alkaline phosphatase); format: cell-based; conditions: 24 h with test compound, luminescence
Protocol: T47D Human Breast Cancer Cells Assay
T47D human breast cancer cells were grown in RPMI medium without phenol red (Invitrogen) containing 10% (v/v) heat-inactivated fetal bovine serum (FBS; Hyclone), 1% (v/v) penicillin-streptomycin (Invitrogen), 1% (w/v) glutamine (Invitrogen), and […] insulin (Sigma). Incubation conditions were 37° C. in a humidified 5% (v/v) carbon dioxide environment.
The cells were plated in 96-well tissue culture plates at 10,000 cells per well in assay medium [RPMI medium without phenol red (Invitrogen) containing 5% (v/v) charcoal-treated FBS (Hyclone) and 1% (v/v) penicillin-streptomycin (Invitrogen)]. Two days later, the medium was decanted and test compound or control were added at a final concentration of 0.1% (v/v) dimethyl sulfoxide in fresh assay medium. Twenty-four hours later, an alkaline phosphatase assay was performed using a SEAP kit (BD Biosciences Clontech, Palo Alto, Calif.). Briefly, the medium was decanted and the cells were fixed for 30 minutes at room temperature with 5% (v/v) formalin (Sigma). The cells were washed once with room temperature Hank's buffered saline solution (Invitrogen). Equal volumes (0.05 mL) of 1× Dilution Buffer, Assay Buffer and 1:20 substrate/enhancer mixture were then added. After 1 hour incubation at room temperature in the dark, the lysate was transferred to a white 96-well plate (Dynex) and luminescence was read using a LuminoSkan Ascent (Thermo Electron, Woburn, Mass.).

Row | Compound | IC50 [1] [nM] | IC50 [2] [nM]
1 | CN(C)CC#C[C@]1(O)CC[C@H]2[C@@H]3OCC4=CC(=O)CCC4=C3C(c3ccc(N(C)C)cc3)C[C@@]21C (some centres unmarked) [Compound 31] | > 3000 | > 1000
2 | Cc1ccccc1C#C[C@]1(O)CC[C@H]2[C@@H]3OCC4=CC(=O)CCC4=C3[C@@H](c3ccc(N(C)C)cc3)C[C@@]21C [Compound 24, 11-(4-Dimethylamino-phenyl)-17-hydroxy-13-methyl-17-o-tolylethynyl-1,2,8,11,12,13,14,15,16,17-decahydro-6H-7-oxa-cyclopenta[a]phenanthren-3-one] | 113 | 5.8
3 | CN(C)c1ccc([C@H]2C[C@@]3(C)[C@@H](CC[C@@]3(O)C#Cc3ccc(C(F)(F)F)cc3)[C@@H]3OCC4=CC(=O)CCC4=C32)cc1 [Compound 9] | 111 | 0.748
4 | CN(C)c1ccc(C2C[C@@]3(C)[C@@H](CC[C@@]3(O)C#Cc3ccncc3)[C@@H]3OCC4=CC(=O)CCC4=C23)cc1 (stereo in doubt) [Compound 28, 11-(4-Dimethylamino-phenyl)-17-hydroxy-13-methyl-17-pyridin-4-ylethynyl-1,2,8,11,12,13,14,15,16,17-decahydro-6H-7-oxa-cyclopenta[a]phenanthren-3-one] | 246 | 39
5 | CN(C)c1ccc([C@H]2C[C@@]3(C)[C@@H](CC[C@@]3(O)C#Cc3ccccc3)[C@@H]3OCC4=CC(=O)CCC4=C32)cc1 [Compound 3, 11-(4-Dimethylamino-phenyl)-17-hydroxy-13-methyl-17-phenylethynyl-1,2,8,11,12,13,14,15,16,17-decahydro-6H-7-oxa-cyclopenta[a]phenanthren-3-one] | 304 | 1.38

Now those with a lower IC50 [1], led by results:

Row | IC50 [1] [nM] | IC50 [2] [nM] | Compound
6 | 43.5 | 0.613 | CN(C)c1ccc([C@H]2C[C@@]3(C)[C@@H](CC[C@@]3(O)C#Cc3ccc(Cl)cc3)[C@@H]3OCC4=CC(=O)CCC4=C32)cc1 [Compound 12, 17-(4-Chloro-phenylethynyl)-11-(4-dimethylamino-phenyl)-17-hydroxy-13-methyl-1,2,8,11,12,13,14,15,16,17-decahydro-6H-7-oxa-cyclopenta[a]phenanthren-3-one]
7 | 62.7 | 8.6 | CN(C)c1ccc([C@H]2C[C@@]3(C)[C@@H](CC[C@@]3(O)C#Cc3ccccc3Br)[C@@H]3OCC4=CC(=O)CCC4=C32)cc1 [Compound 21, 17-(2-Bromo-phenylethynyl)-11-(4-dimethylamino-phenyl)-17-hydroxy-13-methyl-1,2,8,11,12,13,14,15,16,17-decahydro-6H-7-oxa-cyclopenta[a]phenanthren-3-one]
8 | 65.8 | 19.5 | CN(C)c1ccc(C2C[C@@]3(C)[C@@H](CC[C@@]3(O)C#Cc3ccc(C(C)(C)C)cc3)[C@@H]3OCC4=CC(=O)CCC4=C23)cc1 (stereo in doubt) [Compound 10, 17-(4-tert-Butyl-phenylethynyl)-11-(4-dimethylamino-phenyl)-17-hydroxy-13-methyl-1,2,8,11,12,13,14,15,16,17-decahydro-6H-7-oxa-cyclopenta[a]phenanthren-3-one]
9 | 31.3 | 0.943 | CN(C)c1ccc([C@H]2C[C@@]3(C)[C@@H](CC[C@@]3(O)C#Cc3ccc(Br)cc3)[C@@H]3OCC4=CC(=O)CCC4=C32)cc1 [Compound 11, 17-(4-Bromo-phenylethynyl)-11-(4-dimethylamino-phenyl)-17-hydroxy-13-methyl-1,2,8,11,12,13,14,15,16,17-decahydro-6H-7-oxa-cyclopenta[a]phenanthren-3-one]
10 | 48.9 | 12.5 | CN(C)c1ccc([C@H]2C[C@@]3(C)[C@@H](CC[C@@]3(O)C#Cc3cccc(Cl)c3)[C@@H]3OCC4=CC(=O)CCC4=C32)cc1 [Compound 20, 17-(3-Chloro-phenylethynyl)-11-(4-dimethylamino-phenyl)-17-hydroxy-13-methyl-1,2,8,11,12,13,14,15,16,17-decahydro-6H-7-oxa-cyclopenta[a]phenanthren-3-one]
11 | 37.6 | 0.269 | CN(C)c1ccc([C@H]2C[C@@]3(C)[C@@H](CC[C@@]3(O)C#Cc3ccc(F)cc3)[C@@H]3OCC4=CC(=O)CCC4=C32)cc1 [Compound 8, 11-(4-Dimethylamino-phenyl)-17-(4-fluoro-phenylethynyl)-17-hydroxy-13-methyl-1,2,8,11,12,13,14,15,16,17-decahydro-6H-7-oxa-cyclopenta[a]phenanthren-3-one]
12 | 41.3 | 3.67 | CN(C)c1ccc([C@H]2C[C@@]3(C)[C@@H](CC[C@@]3(O)C#Cc3ccc(C#N)cc3)[C@@H]3OCC4=CC(=O)CCC4=C32)cc1 [Compound 14, 4-[11-(4-Dimethylamino-phenyl)-17-hydroxy-13-methyl-3-oxo-1,2,3,6,8,11,12,13,14,15,16,17-dodecahydro-7-oxa-cyclopenta[a]phenanthren-17-ylethynyl]-benzonitrile]
13 | 65.1 | 1.43 | CN(C)c1ccc([C@H]2C[C@@]3(C)[C@@H](CC[C@@]3(O)C#Cc3ccccc3F)[C@@H]3OCC4=CC(=O)CCC4=C32)cc1 [Compound 16, 11-(4-Dimethylamino-phenyl)-17-(2-fluoro-phenylethynyl)-17-hydroxy-13-methyl-1,2,8,11,12,13,14,15,16,17-decahydro-6H-7-oxa-cyclopenta[a]phenanthren-3-one]
